Patent publication US20260184663A1, “INDENE COMPOUNDS, PHARMACEUTICAL COMPOSITIONS THEREOF, AND THEIR THERAPEUTIC APPLICATIONS” (NucMito Pharmaceuticals co. Ltd., priority 2022, published 2026)

Legend:
Format in all cases: cell-based
[1] = test system: B16F10 (malignant melanoma); experiment: Antiproliferative activity (CCK-8 cell viability), B16F10; settings: Mus musculus, 72 h, read-out: Antiproliferative activity in cancerous cells, B16F10 (inhibition of cell growth); for inhibition at 3.3 µM: B16-F10, Compound concentration: 3.3 μM; for inhibition at 10 µM: B16-F10, Compound concentration: 10 μM; for inhibition at 30 µM: B16-F10, Compound concentration: 30 μM
Outline: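 Attached B16F10 cells in 96-well plates were incubated with compound at 37° C for 72 h, followed by 10 μL CCK-8 reagent per well and a further 4 h incubation. A multi-well plate reader measured absorbance at 450 nm. Percent viability across replicates was calculated against DMSO vehicle-treated cells.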

HeLa (cervical cancer) = experiment: Antiproliferative activity (CCK-8 cell viability), HeLa; settings: Homo sapiens, 72 h, read-out: Antiproliferative activity in cancerous cells, HELA (inhibition of cell growth); for inhibition at 3.3 µM: Compound concentration: 3.3 μM; for inhibition at 10 µM: Compound concentration: 10 μM; for inhibition at 30 µM: Compound concentration: 30 μM
Outline: (§1)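 Cells were seeded at 2,000-5,000/well (HeLa in MEM, HepG2 and SW480 in DMEM, A549 in F-12K, all with 10% FBS) and treated with compound at 3.3, 10 or 30 μM for 72 h at 37° C. CCK-8 was added for 4 h, absorbance was read at 450 nm, and viability was expressed relative to DMSO-treated wells.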

[2] = test system: MDA-MB-231 (breast cancer); experiment: Antiproliferative activity (CCK-8 cell viability), MDA-MB-231; settings: Homo sapiens, 72 h, read-out: Antiproliferative activity in cancerous cells, MDA-MB-231 (inhibition of cell growth); for inhibition at 3.3 µM: Compound concentration: 3.3 μM; for inhibition at 10 µM: Compound concentration: 10 μM; for inhibition at 30 µM: Compound concentration: 30 μM
Outline: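 In this CCK-8 viability assay, MDA-MB-231 cells maintained in Dulbecco's modified Eagle's medium containing 10% fetal bovine serum were placed in 96-well plates (2,000-5,000 cells/well) and treated with compound for 72 h at 37° C. A 4 h incubation with 10 μL CCK-8 followed, plates were read at 450 nm, and viability was expressed against DMSO vehicle wells across replicates.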

SW480 (colon cancer) = experiment: Antiproliferative activity (CCK-8 cell viability), SW480; settings: Homo sapiens, 72 h, read-out: Antiproliferative activity in cancerous cells, SW480 (inhibition of cell growth); for inhibition at 3.3 µM: Compound concentration: 3.3 μM; for inhibition at 10 µM: Compound concentration: 10 μM; for inhibition at 30 µM: Compound concentration: 30 μM
Outline: as §1

[3] = test system: A549 (lung adenocarcinoma); experiment: Antiproliferative activity (CCK-8 cell viability), A549; settings: Homo sapiens, 72 h, read-out: Antiproliferative activity in cancerous cells, A549 (inhibition of cell growth); for inhibition at 3.3 µM: Compound concentration: 3.3 μM; for inhibition at 10 µM: Compound concentration: 10 μM; for inhibition at 30 µM: Compound concentration: 30 μM
Outline: as §1

[4] = test system: A431 (epidermoid carcinoma); experiment: Antiproliferative activity (CCK-8 cell viability), A431; settings: Homo sapiens, 72 h, read-out: Antiproliferative activity in cancerous cells, A431 (inhibition of cell growth); for inhibition at 3.3 µM: A-431, Compound concentration: 3.3 μM; for inhibition at 10 µM: A-431, Compound concentration: 10 μM; for inhibition at 30 µM: A-431, Compound concentration: 30 μM
Outline: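 Cell viability of compound-treated A431 cells was measured with a Cell Counting Kit-8. Each well received 10 μL of CCK-8 after 72 h of compound exposure, followed by 4 h incubation at 37° C. and a 450 nm plate-reader measurement. Percent viability was calculated relative to DMSO controls across replicates.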

HepG2 (liver cancer) = experiment: Antiproliferative activity (CCK-8 cell viability), HepG2; settings: Homo sapiens, 72 h, read-out: Antiproliferative activity in cancerous cells, HepG2 (inhibition of cell growth); for inhibition at 3.3 µM: Compound concentration: 3.3 μM; for inhibition at 10 µM: Compound concentration: 10 μM; for inhibition at 30 µM: Compound concentration: 30 μM
Outline: as §1

Row | Compound | inhibition at 3.3 µM [1] [%] | inhibition at 10 µM [1] [%] | inhibition at 3.3 µM (HeLa (cervical cancer)) [%] | inhibition at 10 µM (HeLa (cervical cancer)) [%] | inhibition at 3.3 µM [2] [%] | inhibition at 10 µM [2] [%] | inhibition at 3.3 µM (SW480 (colon cancer)) [%] | inhibition at 10 µM (SW480 (colon cancer)) [%] | inhibition at 3.3 µM [3] [%] | inhibition at 10 µM [3] [%] | inhibition at 3.3 µM [4] [%] | inhibition at 10 µM [4] [%] | inhibition at 3.3 µM (HepG2 (liver cancer)) [%] | inhibition at 10 µM (HepG2 (liver cancer)) [%] | inhibition at 30 µM [1] [%] | inhibition at 30 µM (HeLa (cervical cancer)) [%] | inhibition at 30 µM [2] [%] | inhibition at 30 µM (SW480 (colon cancer)) [%] | inhibition at 30 µM [3] [%] | inhibition at 30 µM [4] [%] | further results
1 | CC1=C(CC(=O)O)c2cc(F)ccc2/C1=C\c1ccc(CCCc2ccccc2)cc1 [B114, (Z)-2-(5-Fluoro-2-methyl-1-(4-(3-phenylpropyl)benzylidene)-1H-inden-3-yl)acetic acid] | < 30 | < 30 | ≥ 50 | ≥ 50 | < 30 | < 30 | ≥ 50 | ≥ 50 | 30 to 50 | ≥ 50 | 30 to 50 | ≥ 50 | ≥ 50 | ≥ 50 | – | – | – | – | – | – | –
2 | CC1=C(CC(=O)O)c2cc(F)ccc2/C1=C\c1ccc(Oc2ccc(Cl)cc2F)cc1 [C52, (Z)-2-(1-(4-(4-Chloro-2-fluorophenoxy)benzylidene)-5-fluoro-2-methyl-1H-inden-3-yl)acetic acid] | ≥ 50 | ≥ 50 | 30 to 50 | ≥ 50 | 30 to 50 | ≥ 50 | < 30 | ≥ 50 | 30 to 50 | ≥ 50 | ≥ 50 | ≥ 50 | < 30 | ≥ 50 | – | – | – | – | – | – | –
3 | CC1=C(CC(=O)O)c2cc(Cl)ccc2/C1=C/c1ccc(Oc2ccc(F)c(F)c2)cc1 [E29, (E)-2-(5-Chloro-1-(4-(3,4-difluorophenoxy)benzylidene)-2-methyl-1H-inden-3-yl)acetic acid] | ≥ 50 | ≥ 50 | ≥ 50 | ≥ 50 | ≥ 50 | ≥ 50 | < 30 | ≥ 50 | < 30 | ≥ 50 | < 30 | 30 to 50 | < 30 | ≥ 50 | ≥ 50 | ≥ 50 | ≥ 50 | ≥ 50 | ≥ 50 | ≥ 50 | inhibition at 30 µM (HepG2 (liver cancer)): ≥ 50%
4 | CCOCc1ccc(/C=C2/C(C)=C(CC(=O)O)c3cc(F)ccc32)cc1 [D10, (Z)-2-(1-(4-(Ethoxymethyl)benzylidene)-5-fluoro-2-methyl-1H-inden-3-yl)acetic acid] | 30 to 50 | 30 to 50 | 30 to 50 | ≥ 50 | < 30 | < 30 | 30 to 50 | 30 to 50 | 30 to 50 | 30 to 50 | ≥ 50 | ≥ 50 | < 30 | < 30 | 30 to 50 | ≥ 50 | 30 to 50 | 30 to 50 | 30 to 50 | ≥ 50 | inhibition at 30 µM (HepG2 (liver cancer)): 30 to 50%
5 | CC1=C(CC(=O)O)c2cc(F)ccc2/C1=C/c1ccc(-c2ccc(Cl)cc2)cc1 [E22, (E)-2-(1-((4′-Chloro-[1,1′-biphenyl]-4-yl)methylene)-5-fluoro-2-methyl-1H-inden-3-yl)acetic acid] | ≥ 50 | ≥ 50 | 30 to 50 | ≥ 50 | ≥ 50 | ≥ 50 | 30 to 50 | ≥ 50 | 30 to 50 | ≥ 50 | 30 to 50 | ≥ 50 | ≥ 50 | ≥ 50 | ≥ 50 | ≥ 50 | ≥ 50 | ≥ 50 | ≥ 50 | ≥ 50 | inhibition at 30 µM (HepG2 (liver cancer)): ≥ 50%
